Values after ≈ are worked out from the molar mass of the structure shown. Values joined by “and” are separate entries in the source; they are usually repeats but may differ in a detail not shown here. Equal values may be shown once. Read-outs that look alike come from different tables or passages of the source.
Assays:
[1] = tested on: Staphylococcus aureus (29213); test: MIC, NCCLS broth microdilution; format: cell-based
Bacillus cereus (11778) = test: MIC, NCCLS broth microdilution; format: cell-based
ACTACT = test: DNase I footprint titration, ACTACT site; format: binding; conditions: equilibrium association constant Ka; pH 7.0, 22° C.
ATTACT = test: DNase I footprint titration, ATTACT site; format: binding; conditions: equilibrium association constant Ka; pH 7.0, 22° C.
AGTACT = test: DNase I footprint titration, AGTACT site; format: binding; conditions: equilibrium association constant Ka; pH 7.0, 22° C.
AATACT = test: DNase I footprint titration, AATACT site; format: binding; conditions: equilibrium association constant Ka; pH 7.0, 22° C.
Esherichia coli (25922) = test: MIC, NCCLS broth microdilution; format: cell-based, Escherichia coli; conditions: Escherichia coli (25922)
[2] = tested on: Candida albicans (38247) (Polyene resistant); test: MIC, antifungal assay; format: cell-based
[3] = tested on: Enterococcus faecium (51559) (vacomycin resistant); test: MIC, NCCLS broth microdilution; format: cell-based; conditions: Enterococcus faecium (51559), vancomycin resistant; read-out: MIC
[4] = tested on: Staphylococcus epidermidis (12228); test: MIC, NCCLS broth microdilution; format: cell-based; conditions: Staphylococcus epidermidis (12228); read-out: MIC
[5] = tested on: Clostridium perfringens (13124); test: microbe, parasite or virus in culture; format: cell-based; conditions: Clostridium perfringens
[6] = tested on: Staphylococcus aureus (33591) (methicillin resistant); test: MIC, NCCLS broth microdilution; format: cell-based; conditions: Staphylococcus aureus (33591), methicillin resistant (MRSA); read-out: MIC
[7] = tested on: Listeria monocytogenes (19115); test: MIC, NCCLS broth microdilution; format: cell-based; conditions: read-out: MIC
[8] = tested on: Corynebacterium Group A (49676); test: MIC, NCCLS broth microdilution; format: cell-based; conditions: Corynebacterium
[9] = tested on: Streptococcus pneumoniae (49619); test: MIC, NCCLS broth microdilution; format: cell-based; conditions: Streptococcus pneumoniae (49619); read-out: MIC
[10] = tested on: Propionibacterium acnes (33179); test: MIC, NCCLS broth microdilution; format: cell-based; conditions: Cutibacterium acnes, anaerobe, read-out: MIC
Micrococcus luteus (381) = test: MIC, NCCLS broth microdilution; format: cell-based; conditions: read-out: MIC
[11] = tested on: Pseudomona aeruginosa (27853); test: MIC, NCCLS broth microdilution; format: cell-based
[12] = tested on: Haemophilus influenzae (49247); test: MIC, NCCLS broth microdilution; format: cell-based; conditions: Haemophilus influenzae (49247); read-out: MIC
[13] = tested on: Enterococcus faecalis (29212); test: MIC, NCCLS broth microdilution; format: cell-based; conditions: Enterococcus faecalis (29212); read-out: MIC
Bacillus subtilis (6633) = test: MIC, NCCLS broth microdilution; format: cell-based; conditions: Bacillus subtilis
[14] = tested on: Streptococcus pyogenes (49339); test: MIC, NCCLS broth microdilution; format: cell-based; conditions: Streptococcus pyogenes (49339); Table Ia: Streptococcus Group A(49339); read-out: MIC
[15] = tested on: Peptostreptococcus asaccharolytics (29743); test: MIC, NCCLS broth microdilution; format: cell-based; conditions: anaerobe, read-out: MIC

Compound `Cn1cc(NC(=O)c2cc(NC(=O)c3cc(NC(=O)c4nsc(Cl)c4Cl)cn3C)cn2C)cc1C(=O)NCCC1=NCCN1` [V-uu] has an MIC ([1]; Staphylococcus aureus (29213)) of 0.25 µg/mL (≈ 0.379 µM) and an MIC (Bacillus cereus (11778); Bacillus cereus (11778)) of 1 µg/mL (≈ 1.52 µM).

`CN(C)CCCNC(=O)CCNC(=O)c1cc(NC(=O)c2cc(NC(=O)c3cc(NC(=O)c4nsc(Cl)c4Cl)cn3C)cn2C)cn1C` [V-u] was tested, and the “Binding Constant, sequence ACTACT” value (ACTACT) was 1e+09 M⁻¹, the “Binding Constant, sequence ATTACT” value (ATTACT) was 5e+08 M⁻¹ and the “Binding Constant, sequence AGTACT” value (AGTACT) was 1e+11 M⁻¹. The “Binding Constant, sequence AATACT” value (AATACT) was 1e+08 M⁻¹.

For `CN=C(N)CCNC(=O)c1cc(NC(=O)c2cc(NC(=O)c3cc(NC(=O)c4nsc(Cl)c4Cl)cn3C)cn2C)cn1C` [V-pp], the MIC ([1]; Staphylococcus aureus (29213)) was 0.5 µg/mL (≈ 0.772 µM), the MIC (Esherichia coli (25922)) was 32 µg/mL (≈ 49.4 µM) and the MIC (Bacillus cereus (11778); Bacillus cereus (11778)) was 0.5 µg/mL (≈ 0.772 µM). The MIC [2] was 4 µg/mL (≈ 6.18 µM).

In the case of `Cn1cc(NC(=O)c2cc(NC(=O)c3cc(NC(=O)c4nsc(Cl)c4Cl)cn3C)cn2C)cc1C(=O)NCCN1CCOCC1` [V-mm], the MIC ([1]; Staphylococcus aureus (29213)) is reported as 0.5 µg/mL (≈ 0.739 µM), the MIC (Esherichia coli (25922)) is reported as 32 µg/mL (≈ 47.3 µM) and the MIC (Bacillus cereus (11778); Bacillus cereus (11778)) is reported as 0.25 µg/mL (≈ 0.37 µM). For the same compound, the MIC [2] was 32 µg/mL (≈ 47.3 µM).

For `Cn1cc(NC(=O)c2cc(NC(=O)c3cc(NC(=O)c4nsc(Cl)c4Cl)cn3C)cn2C)cc1C(=O)NCCC(=N)N` [V-ee], the MIC ([1]; Staphylococcus aureus (29213)) was 0.25, μg/mL and 0.125 μg/mL, the MIC (Esherichia coli (25922)) was 64, μg/mL and 32 μg/mL and the MIC (Bacillus cereus (11778); Bacillus cereus (11778)) was 0.25 µg/mL (≈ 0.395 µM). It also gave an MIC [2] of 2 µg/mL (≈ 3.16 µM).

In the case of `CC1COc2c(N3CCN(C)CC3)c(F)cc3c(=O)c(C(=O)O)cn1c23` (centres unmarked) [Ofloxacin, ofloxacin, reference compound], the MIC ([1]; Staphylococcus aureus) is reported as 0.125 µg/mL (≈ 0.346 µM), the MIC [3] is reported as 8 µg/mL (≈ 22.1 µM) and the MIC [4] is reported as 0.25 µg/mL (≈ 0.692 µM). It also gave an MIC [5] of 0.25 µg/mL (≈ 0.692 µM), an MIC [6] of 0.25 µg/mL (≈ 0.692 µM) and an MIC [7] of 1 µg/mL (≈ 2.77 µM). It also gave an MIC [8] of 0.125 µg/mL (≈ 0.346 µM), an MIC [9] of 1 to 2 µg/mL (≈ 2.77 to 5.53 µM) and an MIC [10] of 0.25 µg/mL (≈ 0.692 µM). The MIC (Micrococcus luteus (381)) was 1 µg/mL (≈ 2.77 µM), the MIC [11] was > 128 µg/mL and the MIC [12] was 0.25 µg/mL (≈ 0.692 µM). The MIC [13] was 8 µg/mL (≈ 22.1 µM), the MIC (Esherichia coli (25922); read-out: MIC) was 0.03 µg/mL (≈ 0.083 µM) and the MIC (Bacillus cereus (11778); Bacillus cereus) was 0.125 µg/mL (≈ 0.346 µM). For the same compound, the MIC (Bacillus subtilis (6633)) was 0.125 µg/mL (≈ 0.346 µM), the MIC [14] was 1 µg/mL (≈ 2.77 µM) and the MIC [15] was 0.5 µg/mL (≈ 1.38 µM).

For `Cn1cc(NC(=O)c2cc(NC(=O)c3cc(NC(=O)c4nsc(N5CCCCC5)c4Cl)cn3C)cn2C)cc1C(=O)NCCN1CCOCC1` [V-hh], the MIC ([1]; Staphylococcus aureus (29213)) was 1 µg/mL (≈ 1.38 µM), the MIC (Esherichia coli (25922)) was 32 µg/mL (≈ 44.1 µM) and the MIC (Bacillus cereus (11778); Bacillus cereus (11778)) was 1 µg/mL (≈ 1.38 µM). The MIC [2] was 32 µg/mL (≈ 44.1 µM).

In the case of `COc1snc(C(=O)Nc2cc(C(=O)Nc3cc(C(=O)Nc4cc(C(=O)NCCNC(=N)N)n(C)c4)n(C)c3)n(C)c2)c1Cl` [V-oo], the MIC ([1]; Staphylococcus aureus (29213)) is reported as 0.25 µg/mL (≈ 0.388 µM), the MIC (Esherichia coli (25922)) is reported as 32 µg/mL (≈ 49.7 µM) and the MIC (Bacillus cereus (11778); Bacillus cereus (11778)) is reported as 0.5 µg/mL (≈ 0.776 µM). It also gave an MIC [2] of 1 µg/mL (≈ 1.55 µM).

Work on `Cn1cc(NC(=O)c2cc(NC(=O)c3cc(NC(=O)c4nsc(NCCN)c4Cl)cn3C)cn2C)cc1C(=O)NCCC1=NCCN1` [V-qq] yielded an MIC ([1]; Staphylococcus aureus (29213)) of 0.25 µg/mL (≈ 0.366 µM), an MIC (Esherichia coli (25922)) of 32 µg/mL (≈ 46.8 µM) and an MIC (Bacillus cereus (11778); Bacillus cereus (11778)) of 0.25 µg/mL (≈ 0.366 µM). For the same compound, the MIC [2] was 32 µg/mL (≈ 46.8 µM).

In the case of `CN(C)CCCNC(=O)CCNC(=O)c1cc(NC(=O)c2cc(NC(=O)c3cc(NC(=O)c4nc(NC(=O)CCCNC(=O)c5cc(NC(=O)c6cc(NC(=O)c7cc(NC(=O)c8nsc(NCCCN(C)C)c8Cl)cn7C)cn6C)cn5C)cn4C)cn3C)cn2C)cn1C` [VI-b], the “Binding Constant, sequence ACTACT” value (ACTACT) is reported as 7e+09 M⁻¹, the “Binding Constant, sequence ATTACT” value (ATTACT) is reported as 7e+09 M⁻¹ and the “Binding Constant, sequence AGTACT” value (AGTACT) is reported as 1e+11 M⁻¹. The “Binding Constant, sequence AATACT” value (AATACT) was 7e+09 M⁻¹.

Compound `Cn1cc(NC(=O)c2cc(NC(=O)c3cc(NC(=O)c4nsc(NCCCNC5CCCCC5)c4Cl)cn3C)cn2C)cc1C(=O)NCCCNC1CCCCC1` [V-ff] has an MIC ([1]; Staphylococcus aureus (29213)) of 1 µg/mL (≈ 1.22 µM), an MIC (Esherichia coli (25922)) of 32 µg/mL (≈ 38.9 µM) and an MIC (Bacillus cereus (11778); Bacillus cereus (11778)) of 2 µg/mL (≈ 2.43 µM). For the same compound, the MIC [2] was 16 µg/mL (≈ 19.5 µM).
